# Data: patent US9809583B2 (priority 2014, dated 2017)
# Structures can show the parent of a compound that is named as a salt. Where two headings read alike, the source gives them in different places.
# Legend:
# [1] = biological target: androgen receptor (hAR) (Homo sapiens (Human), UniProt P10275); test: Test of transcriptional activity (hAR / ARE-Luc dual-luciferase assay in CHO cells); type: cell-based; details: CHO cells with hAR and ARE-Luc, 24 hours, 10 nM DHT = 100%
# Method in brief: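 CHO cells cultured 24 h, then transfected with hAR and ARE-Luc plasmids. Transfected cells treated with 0.1˜10,000 nM compound for 24 h; transcriptional activity read by dual-luciferase reporter.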
# [2] = test system: castrated male rats; test: Efficacy test in castrated male rat (Hershberger assay); type: in vivo, SD (Sprague-Dawley) rat; details: castrated male SD rats, oral once a day for 14 days
# Protocol: SD (Sprague-Dawley) male rats (7-week-old) were castrated under ketamine/xylazine anesthesia, and 5 rats were randomly assigned to one group. From the next day, the agonists were dissolved in a vehicle solution and orally administered at a dose of 5 ml per kg once a day for 14 days. As the vehicle, DMSO, Co-solvent, and DW were prepared at a ratio of 4:80:16 (v/v/v), and Co-solvent was prepared by mixing PEG400, Ethanol, and Tween 80 at a ratio of 85:10:5 (v/v/v). 24 hours after last administration of the drug, their body weight was measured and killed. Thereafter, levator ani muscle, ventral prostate, and seminal vesicles were removed and weighed (Hershberger assay). The following Table 6 represents the result of the efficacy test in castrated male rats.
# [3] = read-out: EC50 [nM] (mean ± SE)
# Chain of androgen receptor (hAR) (P10275 whole entry): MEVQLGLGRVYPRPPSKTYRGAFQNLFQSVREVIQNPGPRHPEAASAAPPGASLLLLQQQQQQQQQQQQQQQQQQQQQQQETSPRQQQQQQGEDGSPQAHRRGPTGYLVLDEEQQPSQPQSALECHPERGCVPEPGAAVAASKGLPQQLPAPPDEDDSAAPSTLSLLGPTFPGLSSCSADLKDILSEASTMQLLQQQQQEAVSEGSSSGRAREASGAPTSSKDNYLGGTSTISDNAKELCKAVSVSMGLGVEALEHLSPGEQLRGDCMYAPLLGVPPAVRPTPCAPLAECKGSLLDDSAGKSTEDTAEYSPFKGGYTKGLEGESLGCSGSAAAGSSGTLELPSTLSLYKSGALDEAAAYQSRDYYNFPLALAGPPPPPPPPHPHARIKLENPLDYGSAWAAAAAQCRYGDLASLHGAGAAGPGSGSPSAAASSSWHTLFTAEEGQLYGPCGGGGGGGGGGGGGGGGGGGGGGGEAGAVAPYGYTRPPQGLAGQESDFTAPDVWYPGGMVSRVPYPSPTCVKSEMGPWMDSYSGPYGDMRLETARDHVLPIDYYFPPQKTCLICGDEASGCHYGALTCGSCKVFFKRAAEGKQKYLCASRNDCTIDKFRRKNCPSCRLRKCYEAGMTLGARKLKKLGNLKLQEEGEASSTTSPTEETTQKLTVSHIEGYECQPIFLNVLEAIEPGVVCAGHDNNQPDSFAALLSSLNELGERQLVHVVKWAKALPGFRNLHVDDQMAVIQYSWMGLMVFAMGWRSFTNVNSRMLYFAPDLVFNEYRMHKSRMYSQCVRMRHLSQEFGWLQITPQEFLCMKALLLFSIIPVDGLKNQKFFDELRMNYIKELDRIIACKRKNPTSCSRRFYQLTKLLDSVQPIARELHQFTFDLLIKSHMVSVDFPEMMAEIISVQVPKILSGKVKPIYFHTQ
Compound,EC50 ([1]; EC50 [nM] (mean ± SE)),levator ani muscle weight % relative to intact control group ([2]; 0.1 mg/kg) [%],seminal vesicles weight % relative to intact control group ([2]; 0.1 mg/kg) [%],levator ani muscle weight % relative to intact control group ([2]; 0.3 mg/kg) [%],seminal vesicles weight % relative to intact control group ([2]; 0.3 mg/kg) [%],ventral prostate weight % relative to intact control group ([2]; 0.3 mg/kg) [%],levator ani muscle weight % relative to intact control group ([2]; 1 mg/kg) [%],seminal vesicles weight % relative to intact control group ([2]; 1 mg/kg) [%],ventral prostate weight % relative to intact control group ([2]; 1 mg/kg) [%],levator ani muscle weight % relative to intact control group ([2]; 3 mg/kg) [%],seminal vesicles weight % relative to intact control group ([2]; 3 mg/kg) [%],ventral prostate weight % relative to intact control group ([2]; 3 mg/kg) [%],levator ani muscle weight % relative to intact control group ([2]; 10 mg/kg) [%],seminal vesicles weight % relative to intact control group ([2]; 10 mg/kg) [%],ventral prostate weight % relative to intact control group ([2]; 10 mg/kg) [%],levator ani muscle weight % relative to intact control group ([2]; 30 mg/kg) [%],seminal vesicles weight % relative to intact control group ([2]; 30 mg/kg) [%],ventral prostate weight % relative to intact control group ([2]; 30 mg/kg) [%],levator ani muscle weight % relative to intact control group ([2]; 100 mg/kg) [%],"EC50 [1, 3] [nM]",other results
"N#Cc1ccc(OC[C@@H]2CN(c3ccc(C#N)c(C(F)(F)F)c3)[C@@H](C(F)(F)F)O2)cn1 [Example 44, 5-(((2R,5S)-3-(4-cyano-3-(trifluoromethyl)phenyl)-2-(trifluoromethyl)oxazolidin-5-yl)methoxy)picolinonitrile]",2.6 ± 0.4,43.3 ± 8.1,6.7 ± 1.5,66.6 ± 8.7,16.9 ± 6.7,13.6 ± 5.0,82.4 ± 10.2,37.9 ± 4.3,26.1 ± 5.2,92.1 ± 6.5,54.5 ± 11.9,38.7 ± 8.3,87.0 ± 7.5,46.1 ± 10.8,28.2 ± 5.5,74.2 ± 2.8,49.6 ± 6.0,34.7 ± 4.1,90.5 ± 6.5,–,ventral prostate weight % relative to intact control group ([2]; 0.1 mg/kg): 7.0 ± 3.2%; seminal vesicles weight % relative to intact control group ([2]; 100 mg/kg): 72.4 ± 14.6%; ventral prostate weight % relative to intact control group ([2]; 100 mg/kg): 39.9 ± 4.7%
"COC(=O)N1CCN(C(=O)[C@@H]2CN(c3ccc(C#N)c(C(F)(F)F)c3)[C@@H](C(F)(F)F)O2)CC1 [Example 173, methyl 4-((2R,5S)-3-(4-cyano-3-(trifluoromethyl)phenyl)-2-(trifluoromethyl)oxazolidine-5-carbonyl)piperazine-1-carboxylate]",5.34,15.0 ± 1.2,1.3 ± 0.3,37.5 ± 2.3,2.9 ± 0.3,3.5 ± 0.5,61.1 ± 9.9,5.9 ± 2.1,9.1 ± 2.1,69.9 ± 3.6,20.3 ± 4.8,12.4 ± 3.5,93.0 ± 11.0,34.5 ± 4.0,24.4 ± 2.0,91.4 ± 8.2,45.5 ± 8.6,33.2 ± 3.3,99.5 ± 13.0,–,levator ani muscle weight % relative to intact control group ([2]; 0.03 mg/kg): 9.8 ± 0.6%; seminal vesicles weight % relative to intact control group ([2]; 0.03 mg/kg): 1.3 ± 0.4%; ventral prostate weight % relative to intact control group ([2]; 0.03 mg/kg): 0.6 ± 0.1%; ventral prostate weight % relative to intact control group ([2]; 0.1 mg/kg): 3.2 ± 0.6%; seminal vesicles weight % relative to intact control group ([2]; 100 mg/kg): 52.8 ± 10.6%; ventral prostate weight % relative to intact control group ([2]; 100 mg/kg): 48.6 ± 9.3%
"(2R,5S)-N-(4-acetamidophenyl)-3-(3-chloro-4-nitrophenyl)-2-(trifluoromethyl)oxazolidine-5-carboxamide [Example 123]",–,7.00 ± 0.7,0.2 ± 0.0,14.7 ± 1.5,0.1 ± 0.0,1.6 ± 0.2,23.0 ± 1.1,0.5 ± 0.1,0.7 ± 0.2,40.2 ± 4.2,2.8 ± 1.2,5.6 ± 1.9,58.7 ± 4.1,11.0 ± 2.3,7.9 ± 2.2,78.9 ± 4.0,30.5 ± 5.7,23.0 ± 2.9,88.5 ± 4.7,7.34,levator ani muscle weight % relative to intact control group ([2]; 0.03 mg/kg): 3.5 ± 0.5%; seminal vesicles weight % relative to intact control group ([2]; 0.03 mg/kg): 0.3 ± 0.0%; ventral prostate weight % relative to intact control group ([2]; 0.03 mg/kg): 0.5 ± 0.1%; seminal vesicles weight % relative to intact control group ([2]; 100 mg/kg): 58.7 ± 10.8%; ventral prostate weight % relative to intact control group ([2]; 100 mg/kg): 39.0 ± 9.8%
"(2R,5S)-3-(3-chloro-4-cyanophenyl)-N-(2-chloropyridin-4-yl)-2-(trifluoromethyl)oxazolidine-5-carboxamide [Example 136]",–,4.5 ± 0.9,−0.4 ± 0.1,10.0 ± 0.8,0.8 ± 0.1,1.2 ± 0.3,29.1 ± 3.3,0.9 ± 0.2,2.6 ± 0.4,36.6 ± 3.4,2.4 ± 0.7,4.1 ± 0.9,61.8 ± 3.1,11.0 ± 3.6,10.5 ± 3.7,81.4 ± 10.9,35.8 ± 14.4,25.4 ± 7.8,98.5 ± 7.7,5.07,levator ani muscle weight % relative to intact control group ([2]; 0.03 mg/kg): 3.7 ± 0.8%; seminal vesicles weight % relative to intact control group ([2]; 0.03 mg/kg): −0.1 ± 0.0%; ventral prostate weight % relative to intact control group ([2]; 0.03 mg/kg): 1.7 ± 0.5%; ventral prostate weight % relative to intact control group ([2]; 0.1 mg/kg): −0.6 ± 0.3%; seminal vesicles weight % relative to intact control group ([2]; 100 mg/kg): 57.8 ± 17.9%; ventral prostate weight % relative to intact control group ([2]; 100 mg/kg): 42.1 ± 7.5%
"N#Cc1ccc(N2C[C@@H](COc3ccc(CN)cc3)O[C@@H]2C(F)(F)F)cc1C(F)(F)F [Example 89, 4-((2R,5S)-5-((4-(aminomethyl)phenoxy)methyl)-2-(trifluoromethyl)oxazolidin-3-yl)-2-(trifluoromethyl)benzonitrile hydrochloride]",34.2,–,–,–,–,–,–,–,–,–,–,–,–,–,–,–,–,–,–,–,–
"CC(=O)Nc1ccc(OC[C@@H]2CN(c3ccc([N+](=O)[O-])c(C)c3)[C@@H](C(F)(F)F)O2)cc1 [Example 54, N-(4-(((2R,5S)-3-(3-methyl-4-nitrophenyl)-2-(trifluoromethyl)oxazolidin-5-yl)methoxy)phenyl)acetamide]",–,–,–,–,–,–,–,–,–,–,–,–,–,–,–,–,–,–,–,0.86,–
"N#Cc1ccc(OC[C@@H]2CN(c3ccc([N+](=O)[O-])c(C(F)(F)F)c3)[C@@H](C(F)(F)F)O2)cc1 [Example 64, 4-(((2R,5S)-3-(4-nitro-3-(trifluoromethyl)phenyl)-2-(trifluoromethyl)oxazolidin-5-yl)methoxy)benzonitrile]",–,–,–,–,–,–,–,–,–,–,–,–,–,–,–,–,–,–,–,34,–
"(2R,5S)-3-(3-chloro-4-nitrophenyl)-N-(pyridin-4-yl)-2-(trifluoromethyl)oxazolidine-5-carboxamide [Example 126]",–,–,–,–,–,–,–,–,–,–,–,–,–,–,–,–,–,–,–,1.21,–
"Cc1c(N2C[C@@H](COc3ccc(C#N)cc3)O[C@H]2C(F)(F)F)ccc(C#N)c1Cl [Example 84, 2-chloro-4-((2S,5S)-5-((4-cyanophenoxy)methyl)-2-(trifluoromethyl)oxazolidin-3-yl)-3-methylbenzonitrile]",1140,–,–,–,–,–,–,–,–,–,–,–,–,–,–,–,–,–,–,–,–
"N#Cc1ccc(NC(=O)[C@@H]2CN(c3ccc(C#N)c(C(F)(F)F)c3)[C@@H](C(F)(F)F)O2)cc1C(F)(F)F [Example 144, (2R,5S)-N,3-bis(4-cyano-3-(trifluoromethyl)phenyl)-2-(trifluoromethyl)oxazolidine-5-carboxamide]",11.1,–,–,–,–,–,–,–,–,–,–,–,–,–,–,–,–,–,–,–,–
